Test results from PMC2248166, “Quantitative peptide binding motifs for 19 human and mouse MHC class I molecules derived using positional scanning combinatorial peptide libraries” (Immunome Research, 2008).
Where a SMILES comes first, the peptide text is derived from it.

Biological target: HLA B*1503 (Homo sapiens, UniProt P01889, A329T/A93T/A95T/C349S/D201E/D98Y/E187L/E204Q/K202T/N87E/Q94N/R155S/R180L/S121R/S35A/V306I/V36M/Y140S/Y91S)
Assay: biochemical
Assay type: binding

Compound | IC50
CC[C@H](C)[C@H](NC(=O)[C@H](CCSC)NC(=O)[C@H](CC(=O)O)NC(=O)[C@H](CC(N)=O)NC(=O)[C@@H](NC(=O)[C@H](CCSC)NC(=O)[C@H](CCC(N)=O)NC(=O)[C@@H](N)CCCNC(=N)N)C(C)C)C(=O)N[C@@H](Cc1ccccc1)C(=O)O [3102.1102] (H-RQMVNDMIF-OH) | 1.3 nM
N=C(N)NCCC[C@H](NC(=O)[C@H](CC(=O)O)NC(=O)[C@H](CCCCN)NC(=O)[C@H](CCC(=O)O)NC(=O)[C@H](Cc1ccccc1)NC(=O)[C@H](CCC(N)=O)NC(=O)[C@@H](N)CCCNC(=N)N)C(=O)N[C@@H](CO)C(=O)N[C@@H](Cc1ccccc1)C(=O)O [3102.1103] (H-RQFEKDRSF-OH) | 0.14 nM
CC[C@H](C)[C@H](N)C(=O)N[C@@H](CCC(N)=O)C(=O)N[C@H](C(=O)N[C@@H](CC(C)C)C(=O)N[C@@H](CC(N)=O)C(=O)NCC(=O)N[C@@H](CCCCN)C(=O)N[C@@H](Cc1c[nH]cn1)C(=O)N[C@@H](Cc1ccccc1)C(=O)O)[C@@H](C)O [3102.1105] (H-IQTLNGKHF-OH) | 11 nM
CC[C@H](C)[C@H](NC(=O)[C@@H](NC(=O)[C@H](CCC(=O)O)NC(=O)[C@H](CCC(=O)O)NC(=O)[C@H](CO)NC(=O)[C@H](CCSC)NC(=O)[C@@H](N)CC(C)C)[C@@H](C)O)C(=O)N[C@@H](CC(=O)O)C(=O)N[C@@H](Cc1ccccc1)C(=O)O [3102.1106] (H-LMSEETIDF-OH) | 12 nM
CC[C@H](C)[C@H](NC(=O)[C@@H](NC(=O)[C@H](CCC(=O)O)NC(=O)[C@H](Cc1ccccc1)NC(=O)[C@H](Cc1ccccc1)NC(=O)[C@H](CCCCN)NC(=O)[C@@H](N)CC(N)=O)C(C)C)C(=O)N[C@@H](Cc1ccccc1)C(=O)N[C@@H](Cc1ccccc1)C(=O)O [3102.1109] (H-NKFFEVIFF-OH) | 19 nM
CC(C)C[C@H](NC(=O)[C@H](Cc1ccc(O)cc1)NC(=O)[C@H](CCC(N)=O)NC(=O)[C@H](CO)NC(=O)[C@H](CCCNC(=N)N)NC(=O)[C@H](CC(N)=O)NC(=O)[C@H](CCC(N)=O)NC(=O)[C@@H](N)CCCNC(=N)N)C(=O)N[C@@H](Cc1ccccc1)C(=O)O [3102.1112] (H-RQNRSQYLF-OH) | 0.14 nM
CC[C@H](C)[C@H](NC(=O)CNC(=O)[C@H](CC(C)C)NC(=O)[C@H](CCSC)NC(=O)[C@H](CO)NC(=O)[C@@H](N)Cc1ccccc1)C(=O)N[C@@H](Cc1c[nH]c2ccccc12)C(=O)N[C@@H](Cc1ccccc1)C(=O)N[C@@H](Cc1ccccc1)C(=O)O [3102.1113] (H-FSMLGIWFF-OH) | 28 nM
CC(C)C[C@H](NC(=O)[C@H](Cc1ccccc1)NC(=O)[C@H](CO)NC(=O)[C@@H](N)CC(C)C)C(=O)N[C@@H](CO)C(=O)N[C@@H](CCCNC(=N)N)C(=O)N[C@H](C(=O)N[C@@H](Cc1ccccc1)C(=O)N[C@@H](Cc1ccccc1)C(=O)O)C(C)C [3102.1115] (H-LSFLSRVFF-OH) | 0.33 nM
CC[C@H](C)[C@H](NC(=O)[C@H](CO)NC(=O)[C@@H](NC(=O)[C@H](CCC(N)=O)NC(=O)[C@H](CO)NC(=O)[C@H](CC(N)=O)NC(=O)[C@H](Cc1ccccc1)NC(=O)[C@H](CCCCN)NC(=O)[C@@H](N)Cc1ccccc1)C(C)C)C(=O)O [3102.1116] (H-FKFNSQVSI-OH) | 1.2 nM
CC(C)C[C@H](NC(=O)[C@H](CO)NC(=O)[C@H](CS)NC(=O)[C@@H](NC(=O)[C@H](Cc1ccccc1)NC(=O)[C@H](CCC(N)=O)NC(=O)[C@@H](N)CO)[C@@H](C)O)C(=O)N[C@@H](C)C(=O)N[C@H](C(=O)O)C(C)C [3102.1117] (H-SQFTCSLAV-OH) | 1.5 nM
CC(C)[C@H](N)C(=O)N[C@@H](CCC(=O)O)C(=O)N[C@H](C(=O)N[C@@H](CCC(=O)O)C(=O)N1CCC[C@H]1C(=O)NCC(=O)N[C@@H](CO)C(=O)N[C@@H](CO)C(=O)N[C@@H](Cc1ccccc1)C(=O)O)C(C)C [3102.1119] (H-VEVEPGSSF-OH) | 1.7 nM
CC[C@H](C)[C@H](N)C(=O)N[C@@H](CCCCN)C(=O)N[C@@H](Cc1ccc(O)cc1)C(=O)N[C@@H](CCSC)C(=O)N[C@H](C(=O)NCC(=O)N[C@@H](CC(N)=O)C(=O)N[C@@H](Cc1ccccc1)C(=O)N[C@@H](CCSC)C(=O)O)[C@@H](C)CC [3102.1120] (H-IKYMIGNFM-OH) | 2.2 nM
CSCC[C@H](NC(=O)[C@H](CCCCN)NC(=O)[C@@H](N)CCCCN)C(=O)N[C@H](C(=O)N[C@@H](CS)C(=O)NCC(=O)N[C@@H](CCC(N)=O)C(=O)N1CCC[C@H]1C(=O)N[C@@H](CC(C)C)C(=O)O)[C@@H](C)O [3102.1121] (H-KKMTCGQPL-OH) | 1.5 nM
CC(C)[C@H](N)C(=O)N[C@@H](CCCCN)C(=O)N[C@H](C(=O)N[C@@H](CCCCN)C(=O)N[C@@H](CCC(=O)O)C(=O)N[C@@H](CCC(=O)O)C(=O)N[C@@H](CC(N)=O)C(=O)N[C@H](C(=O)N[C@@H](Cc1ccccc1)C(=O)O)[C@@H](C)O)C(C)C [3102.1122] (H-VKVKEENTF-OH) | 0.42 nM
CC(C)[C@H](NC(=O)[C@H](CCC(N)=O)NC(=O)[C@@H](N)CCCNC(=N)N)C(=O)N[C@H](C(=O)N[C@@H](CC(=O)O)C(=O)N[C@@H](Cc1ccccc1)C(=O)N[C@@H](Cc1ccccc1)C(=O)N[C@@H](CCCCN)C(=O)N[C@@H](Cc1ccccc1)C(=O)O)C(C)C [3102.1123] (H-RQVVDFFKF-OH) | 0.34 nM
CC(C)[C@H](NC(=O)[C@H](Cc1ccc(O)cc1)NC(=O)[C@H](CCC(N)=O)NC(=O)[C@@H](N)Cc1ccccc1)C(=O)N[C@@H](CO)C(=O)N[C@@H](Cc1ccc(O)cc1)C(=O)N[C@@H](CO)C(=O)N[C@@H](CC(N)=O)C(=O)N[C@@H](Cc1ccccc1)C(=O)O [3102.1128] (H-FQYVSYSNF-OH) | 0.26 nM
CC(C)C[C@H](NC(=O)[C@H](CO)NC(=O)[C@@H](NC(=O)[C@H](CCCNC(=N)N)NC(=O)[C@H](CO)NC(=O)[C@H](CC(C)C)NC(=O)[C@H](Cc1ccc(O)cc1)NC(=O)[C@H](CCC(N)=O)NC(=O)[C@@H](N)CO)C(C)C)C(=O)O [3102.1130] (H-SQYLSRVSL-OH) | 0.24 nM
CC(C)C[C@H](NC(=O)[C@@H](NC(=O)[C@H](CC(N)=O)NC(=O)[C@@H]1CCCN1C(=O)[C@@H]1CCCN1C(=O)[C@H](CO)NC(=O)[C@@H](NC(=O)[C@H](CO)NC(=O)[C@@H](N)CO)C(C)C)C(C)C)C(=O)O [3102.1131] (H-SSVSPPNVL-OH) | 18 nM
CC[C@H](C)[C@H](NC(=O)[C@H](CCC(N)=O)NC(=O)[C@H](CC(N)=O)NC(=O)[C@H](CC(=O)O)NC(=O)[C@H](CCCNC(=N)N)NC(=O)[C@H](C)NC(=O)[C@@H](N)Cc1ccccc1)C(=O)N[C@@H](CO)C(=O)N[C@@H](Cc1ccccc1)C(=O)O [3102.1132] (H-FARDNQISF-OH) | 0.2 nM
CC(C)[C@H](NC(=O)[C@H](Cc1c[nH]cn1)NC(=O)[C@H](CCC(N)=O)NC(=O)CNC(=O)[C@H](Cc1ccccc1)NC(=O)[C@H](CS)NC(=O)[C@H](CC(N)=O)NC(=O)[C@H](C)NC(=O)[C@H](C)N)C(=O)O [3102.1133] (H-AANCFGQHV-OH) | 22 nM
CC[C@H](C)[C@H](NC(=O)[C@@H]1CCCN1C(=O)CNC(=O)[C@H](Cc1ccccc1)NC(=O)[C@H](Cc1ccccc1)NC(=O)[C@@H](NC(=O)[C@H](CCCCN)NC(=O)[C@@H](N)CO)C(C)C)C(=O)N[C@@H](Cc1ccc(O)cc1)C(=O)O [3102.1134] (H-SKVFFGPIY-OH) | 1 nM
CC(C)C[C@H](NC(=O)[C@H](Cc1ccccc1)NC(=O)[C@@H]1CCCN1C(=O)[C@H](CCCNC(=N)N)NC(=O)[C@@H](NC(=O)[C@H](CC(C)C)NC(=O)[C@@H](N)CCCNC(=N)N)C(C)C)C(=O)N[C@H](C(=O)N[C@H](C(=O)O)C(C)C)C(C)C [3102.1135] (H-RLVRPFLVV-OH) | 16 nM
CC[C@H](C)[C@H](N)C(=O)N[C@@H](CCCCN)C(=O)N[C@@H](CO)C(=O)N[C@@H](Cc1ccc(O)cc1)C(=O)N[C@H](C(=O)N[C@H](C(=O)N[C@@H](CCCNC(=N)N)C(=O)N[C@H](C(=O)N[C@@H](Cc1ccccc1)C(=O)O)C(C)C)[C@@H](C)CC)[C@@H](C)O [3102.1137] (H-IKSYTIRVF-OH) | 1.6 nM
CC[C@H](C)[C@H](NC(=O)[C@H](CCSC)NC(=O)[C@H](CC(C)C)NC(=O)[C@@H]1CCCN1C(=O)[C@H](CCCNC(=N)N)NC(=O)[C@H](Cc1ccccc1)NC(=O)[C@H](CCCCN)NC(=O)[C@@H](N)CCCCN)C(=O)N[C@@H](Cc1ccccc1)C(=O)O [3102.1138] (H-KKFRPLMIF-OH) | 0.17 nM
CC(C)C[C@H](NC(=O)[C@H](Cc1ccccc1)NC(=O)[C@H](CCCNC(=N)N)NC(=O)[C@@H](N)CC(C)C)C(=O)N[C@@H](CCC(=O)O)C(=O)N[C@@H](CCCCN)C(=O)N[C@H](C(=O)N[C@@H](CO)C(=O)N[C@@H](Cc1ccccc1)C(=O)O)[C@@H](C)O [3102.1139] (H-LRFLEKTSF-OH) | 2.2 nM
CC[C@H](C)[C@H](NC(=O)[C@@H](NC(=O)[C@H](CCSC)NC(=O)[C@@H](N)CO)C(C)C)C(=O)N[C@@H](CO)C(=O)N[C@@H](CC(C)C)C(=O)N[C@@H](CC(C)C)C(=O)N[C@@H](CO)C(=O)N[C@@H](CCSC)C(=O)O [3102.1140] (H-SMVISLLSM-OH) | 8 nM
CC[C@H](C)[C@H](N)C(=O)N[C@@H](CC(C)C)C(=O)N[C@@H](Cc1c[nH]cn1)C(=O)N[C@@H](CO)C(=O)N[C@@H](CC(=O)O)C(=O)N[C@@H](Cc1ccc(O)cc1)C(=O)N[C@@H](CCC(N)=O)C(=O)N[C@@H](CC(C)C)C(=O)N[C@@H](Cc1ccccc1)C(=O)O [3102.1141] (H-ILHSDYQLF-OH) | 2.4 nM
CSCC[C@H](NC(=O)[C@H](CCCCN)NC(=O)[C@@H](N)CCCCN)C(=O)N[C@@H](CCC(N)=O)C(=O)N[C@@H](CO)C(=O)N[C@@H](Cc1ccc(O)cc1)C(=O)N[C@@H](CC(N)=O)C(=O)N[C@@H](CO)C(=O)N[C@H](C(=O)O)C(C)C [3102.1143] (H-KKMQSYNSV-OH) | 2.8 nM
CC[C@H](C)[C@H](NC(=O)[C@H](CO)NC(=O)[C@H](Cc1ccc(O)cc1)NC(=O)[C@@H](NC(=O)[C@H](C)NC(=O)[C@H](Cc1c[nH]cn1)NC(=O)[C@@H](N)CC(C)C)C(C)C)C(=O)N[C@H](C(=O)N[C@@H](Cc1ccccc1)C(=O)O)C(C)C [3102.1145] (H-LHAVYSIVF-OH) | 8.8 nM
